Results published in patent US9464064B2, “HCV helicase inhibitors and methods of use thereof” (University of Kansas, priority 2011, dated 2016).

Legend:
in vitro = type: cell-based; settings: human
Procedure: Immortalized human hepatocytes, Fa2N-4 cells (XenoTech) were seeded at ˜50,000 cells/well, and incubated with a range of concentrations (0.01-50 μM) of compound 17, in duplicate, for 24 hours at 37° C., 5% CO2. Cell viability was determined by cellular ATP levels using the Luminescence ATP Detection Assay System (ATPLITE 1 step, Perkin Elmer) and the Infinite M200 plate reader (Tecan). Camptothecin (highly toxic) and Terfenadine (highly non-toxic) were used as standards. Final DMSO concentration was 0.5%.

[1] = Chemical stability (hydrolytic); type: physicochemical; settings: PBS with 50% acetonitrile, pH 7.4; % remaining after 48 hours at room temperature
Procedure: The stability of compounds in 1×PBS, pH 7.4, and at room temperature, was determined. Stability was also assessed in the presence of 50% ACN. Compounds were diluted and time 0 hour aliquots were collected and transferred to acetonitrile (spiked with an internal standard). The remainder of the volume was incubated for 48 hours, with additional aliquots collected at different time points (6 total). The amount of compound was determined by LC/MS/MS. The parent compound remaining was calculated by the following formula: % parent compound remaining=[(concentration at x hour/concentration at 0 hour)×100]. Results are the mean of each reaction triplicate, normalized to the internal standard, and expressed as a percent compound remaining after 48 hours.

[2] = Plasma protein binding (RED), human; type: in vitro ADME
Procedure: TEFLON Base Plate wells were rinsed with 20% ethanol for 10 minutes. Ethanol was then removed and wells were rinsed with ultrapure water and allowed to dry. RED (rapid equilibrium dialysis) inserts from Thermo Scientific (Pierce) were placed (open end up) into the wells of the base plate. All liquid was dispensed and transfer steps were performed with the FREEDOM EVO automated liquid handler (Tecan US). The sample chambers (red ring) contained 300 μl of a mixture of plasma and compound, and the buffer chambers received 500 μl of dialysis buffer (1×PBS, pH7.4). Duplicate inserts were made for each concentration tested. The base plate was covered with sealing tape and incubated at 37° C. on an orbital shaker at 350 rpm for 4 hours. After the incubation time, equal volumes from both chambers were removed and transferred to a 96 well plate containing either plasma or buffer. […] The amount of compound in the supernatant was determined by LC/MS/MS (Applied Biosystems, Sciex API4000 Q-Trap). The percent of free and bound compounds were calculated with the following formula: % of bound parent compound=[(amount of compound in donor-receiver/amount of compound in donor)×100]. Results reported are the mean of each reaction duplicate, normalized to the internal standard, and expressed as a percent compound bound after the incubation time. […]

Plasma stability, human = type: in vitro ADME; settings: percent remaining at 3 hours
Procedure: Stability of compounds in human plasma (BioChemed Services) and mouse plasma (BioChemed Services) were determined. All liquid was dispensed and transfer steps were performed with the FREEDOM EVO automated liquid handler (Tecan US). Plasma was allowed to thaw at room temperature prior to preparing the assay solution of plasma:1×PBS (1:1). The assay solution was warmed up at 37° C. prior of adding the compound. Immediately after compounds were added, time 0 minute aliquots were promptly collected and mixed with cold acetonitrile (spiked with an internal standard). The remainder of the reaction volume was incubated at 37° C. with shaking. Additional aliquots were collected 180 minutes after the start of the reaction and promptly quenched with cold acetonitrile (spiked with an internal standard). Samples were centrifuged at 3000 rpm for 10 minutes. The amount of compound in the supernatant was determined by LC/MS/MS (Applied Biosystems, Sciex API4000 Q-TRAP) and the percent of parent compound remaining after 180 minutes was calculated by the following formula: % parent compound remaining=[(concentration at 180 minutes/concentration at 0 minutes)×100]. Results reported are the mean of each reaction duplicate, normalized to the internal standard, and expressed as a percent of compound remaining after the incubation time. […]

[3] = Hepatic microsome stability, human; type: in vitro ADME; settings: percent remaining at 1 hour
Procedure: Metabolic stability was assessed in the presence of human liver microsomes (XenoTech) and mouse liver mirosomes (XenoTech). All liquid was dispensed and transfer steps were performed with the FREEDOM EVO automated liquid handler (Tecan US). NADPH, a required cofactor for CYP450 metabolism, was provided by the NADPH Regenerating System, Solutions A (BD Biosciences) and B (BD Biosciences). Compound stock solutions were initially prepared in 100% DMSO and subsequently diluted in acetonitrile for the assay. The pH of the reactions was kept at ˜7.4 with potassium phosphate buffer (BD Biosciences). The reactions were started after adding NADPH to the reaction plate containing microsomes and compounds and time 0 minutes aliquots were promptly collected and mixed with ice cold acetonitrile (spiked with internal standards) to quench the reactions. The remainder of the reaction volume was incubated at 37° C. with shaking. […] The amount of compound in the supernatant was determined by LC/MS/MS (Applied Biosystems, Sciex API4000 Q-TRAP) and the percent of parent compound remaining after 60 minutes was calculated by the following formula: % parent compound remaining=[(concentration at 60 minutes/concentration at 0 minutes)×100]. […] Results reported are the mean of each reaction triplicate, normalized to the internal standard, and expressed as a percent compound remaining after the incubation time. […]

Cc1ccc2nc(-c3ccc4nc(-c5ccc(NC(=O)c6cccc(Cl)c6)cc5)sc4c3)sc2c1S(=O)(=O)O [Compound 17, 2′-(4-(3-chlorobenzamido)phenyl)-6-methyl-[2,6′-bibenzo[d]thiazole]-7-sulfonic acid]
CC50 at 24 h (in vitro): > 50 µM
Aqueous Stability [1]: 100%
fraction unbound at 4 h, 1 μM ([2]; pH 7.4, 1 μM, read-out: Plasma Protein Binding (% Bound) Human (converted)): 0.02
fraction unbound at 4 h, 10 μM ([2]; pH 7.4, 10 μM, read-out: Plasma Protein Binding (% Bound) Human): 0.01
Plasma Stability Human (Plasma stability, human): 96.6%
Hepatic Microsome Stability Human [3]: 83.57%
